Test results as given in patent US20250129101A1, “Compound, Pharmaceutical Composition Comprising the Same and Method for Treating Cancer Using the Same” (NATIONAL TSING HUA UNIVERSITY, priority 2023, published 2025).

How the values were obtained:
KIF2C = biological target: T1, KIF2C (Homo sapiens, UniProt Q99661); test: In vitro validation: KIF2C kinesin activity, malachite green-based phosphate colorimetric assay; format: biochemical
T1 construct: KIF2C (216-598 a.a.); 6xHis (C); made in house; host or cells: E. coli BL21 (DE3), pET-28a
In short: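 KIF2C sN+M construct (aa 216-598, C-terminal 6×His, E. coli-expressed) ATPase activity with microtubules from porcine brain tubulin or HEK293 (293Fs) cells in BRB80 (80 mM PIPES pH 6.8, 1 mM GTP, 10% DMSO), 37° C for 2 hr. Released phosphate detected by malachite green reagent, 10 min, A650.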

4T1 R8 cells = test: Cell viability assay, 4T1 R8 cells; format: cell-based, mouse; conditions: with 400 nM paclitaxel, 72 hr
Procedure: MCF-7, MDA-MB-231, MDA-MB-468, Hs578T, 4T1, and HeLa cell lines stably expressing H2B-mCherry and eGFP-tubulin (kindly provided by Dr. Anthony A. Hyman, Max-Planck-Institute for Molecular Cell Biology and Genetics, Dresden, Germany) were cultured in high-glucose Dulbecco's Modified Eagle Medium (DMEM). SK-BR-3 cells were cultured in McCoy's Modified 5a Medium. Hs578T cells were cultured in high-glucose DMEM supplemented with an additional 0.01 mg/mL bovine insulin. […] All mentioned media were supplemented with 10% fetal bovine serum (Gibco) and 1% Penicillin/Streptomycin (Corning), and cells were incubated at 37° C. in a humidified atmosphere containing 5% CO2. HEK293 cells were cultured in HE300 medium (GMEP incorporated, Japan) and maintained in suspension culture with 125 rpm and 8% CO2.
The cancer cells were cultured in a 96-well plate at a confluence of 1000-2000 cells/well with indicated drugs for specific days. When the time was up, the culture medium in the plate was aspirated and replaced with a prepared CellTiter-Glo reagent/DMEM mixture (1:1 mix of CellTiter-Glo reagent and serum-supplemented DMEM). After incubation for 10 min, the luminescence (proportional to the number of living cells) was measured with an ELISA plate reader to determine the cell viability.

KIF2C and tubulin = biological target: T2, KIF2C and tubulin (Homo sapiens, UniProt Q99661); test: KIF2C-tubulin affinity pull-down assay; format: binding
T2 construct: KIF2C (216-598 a.a.); made in house; host or cells: E. coli BL21 (DE3), pET-28a (KIF2C); tubulin from porcine brain (Cytoskeleton) or HEK293 cells
Procedure: The mixture was subjected to KIF2C pull-down with 50 μL of pre-equilibrated Ni-NTA resin. Residual tubulin that remained interacting with KIF2C was resolved by SDS-PAGE followed by Coomassie brilliant blue staining or western blotting.

4T1 R8 = test: In vivo tumor growth inhibition, 4T1 R8 syngeneic model; set-up: species or system mouse; conditions: R8 tumors, BALB/c mice, 7S9 50 mg/kg with paclitaxel 15 mg/kg
Procedure: The mice were housed at the National Health Research Institute (NHRI) Animal Center in accordance with the Institutional Animal Care and Use Committee procedures and guidelines. The 4T1-derived cells, including 4T1, 4T1 R4, and 4T1 R8, used for implantation were harvested during log phase growth and resuspended in phosphate-buffered saline. Each mouse was injected s.c. in the right flank with 5×10^5 cells. After tumor size reached 60-100 mm 3 (D1), mice were divided into groups and received treatment with vehicle or different compounds alone or in combinations. Tumor size, in mm 3, was measured twice per week and calculated from Tumor volume=(w 2×1)/2, where w=width and 1=length in mm of the tumor. The values of tumor size were expressed as mean±SEM.

T1 sequence (Q99661 216-598): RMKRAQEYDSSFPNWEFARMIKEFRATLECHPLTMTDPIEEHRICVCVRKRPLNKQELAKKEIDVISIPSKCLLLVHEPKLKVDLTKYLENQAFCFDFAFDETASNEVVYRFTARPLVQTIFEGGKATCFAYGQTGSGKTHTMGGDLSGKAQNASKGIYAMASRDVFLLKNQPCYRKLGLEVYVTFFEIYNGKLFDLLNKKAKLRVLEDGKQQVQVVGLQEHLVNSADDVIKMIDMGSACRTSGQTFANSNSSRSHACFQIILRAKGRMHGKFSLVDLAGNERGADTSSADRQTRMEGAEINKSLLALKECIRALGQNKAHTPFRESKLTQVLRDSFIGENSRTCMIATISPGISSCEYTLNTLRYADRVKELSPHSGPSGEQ
T2 sequence (Q99661 216-598): as above

SMILES: CCN1CCN(C(=O)COc2ccc(/C=c3\sc4n(c3=O)C(c3ccc(Cl)cc3)C(C(=O)OC(C)C)=C(C)N=4)cc2)CC1.O=C(O)/C=C\C(=O)O (stereo not shown) [7S9 (133), isopropyl (Z)-5-(4-chlorophenyl)-2-(4-(2-(4-ethylpiperazin-1-yl)-2-oxoethoxy)benzylidene)-7-methyl-3-oxo-2,3-dihydro-5H-thiazolo[3,2-a]pyrimidine-6-carboxylate maleate]
- inhibitory effect against KIF2C (in words) (KIF2C; 50 μM (FIG. 4I)): selective inhibition against KIF2C
- KIF2C activity in the presence of paclitaxel (in words) (KIF2C; 100 μM 7S9, 1 μM paclitaxel): could successfully inhibit KIF2C activity in the presence of paclitaxel
- inhibition of KIF2C kinesin activity (in words) (KIF2C; 100 μM (FIG. 4B)): most potent inhibitor of KIF2C
- EC50 (KIF2C; concentration that inhibits 50% of KIF2C activity): < 50 µM
- fold increase of cell sensitivity to 7S9 by paclitaxel (4T1 R8 cells): 8 fold
- molecular interaction between KIF2C and tubulin (in words) (KIF2C and tubulin): increased by 7S9 in a dose-dependent manner
- tumor growth inhibition, combination (4T1 R8): 66.2%
